In US20140220110A1, “REMOTE LOADING OF SPARINGLY WATER-SOLUBLE DRUGS INTO LIPOSOMES” (ZONEONE PHARMA, INC., priority 2013, published 2014):

Legend:
[1] = Remote loading of carfilzomib precipitate into liposomes (drug and lipid by HPLC after purification); format: physicochemical; details: for efficiency of remote loading: 100 g drug/mol HSPC
Procedure: Ammonium sulfate solution was prepared by dissolving ammonium sulfate solid to a final concentration of 250 mM (500 mequivilents of anion/L) no pH adjustment was made to yield a final pH of 5.6. Sodium sulfate solution (250 mM) was prepared by adding 0.35 g sodium sulfate to 10 mL deionized water.
The liposomes were formed by extrusion. Lipids were dissolved in ethanol at a concentration of 500 mM HSPC (591 mg/mL total lipid) at 65° C. and the 9 volumes of the trapping agent solution heated to 65° C. was added to the ethanol/lipid solution also at 65° C. The mixture was vortexed and transferred to a 10 mL thermostatically controlled (65° C.) Lipex Extruder. The liposomes were formed by extruding 10 times through polycarbonate membranes having 0.1 um pores. After extrusion the liposomes were cooled on ice. The transmembrane electrochemical gradient was formed by purification of the liposomes by dialysis in dialysis tubing having a molecular weight cut off of 12,000-14,000. The samples are dialyzed against 5 mM HEPES, 10% sucrose pH 6.5 (stirring at 4° C.) at volume that is 100 fold greater than the sample volume. The dialysate was changed after 2 h then 4 more times after 12 h each. The conductivity of the liposome solution was measured and was indistinguishable from the dialysis medium ˜40 μS/cm.
The lipid concentration is determined by measuring the cholesterol by HPLC using an Agilent 1100 HPLC with and Agilent Zorbax 5 um, […], Eclipse XDB-C8 column and a mobile phase of A=0.1% TFA, B=0.1% TFA/MeOH with an isocratic elution of 99% B. The flow rate is 1.0 mL/min, column temperature is 50° C., 10 μL injection and detection by absorbance at 205 nm. The retention time of cholesterol is 4.5 min. The liposome size is measured by dynamic light scattering.
Carfilzomib (Selleck Chemicals) was dissolved in DMSO at a concentration of 10 mg/mL. The carfilzomib was introduced to the liposomes at a carfilzomib to HSPC ratio of 100 g drug/mol HSPC (drug to total lipid ratio (wt/wt) of 0.12). The liposomes were diluted with 50 mM citrate, 10% sucrose pH 4.0 to increase the volume to a point where after addition of the drug the final DMSO concentration is 2%. The carfilzomib/DMSO was added to the diluted liposomes, which were mixed at room temperature then transferred to a 65° C. bath and swirled every 30 s for the first 3 min and then swirled every 5 min over a total heating time of 30 min. All samples were very cloudy when the drug was added and all became clear (same as liposomes with no drug added) after 15 min. After heating for 30 min all samples were placed on ice for 15 min. The loaded liposomes were vortexed and 100 μL of sample was kept as the “before column” and the rest transferred to microcentrifuge tubes and spun at 10,000 RPM for 5 min. The supernatants were purified on a Sephadex G25 column collected and analyzed by HPLC. The HPLC analysis of carfilzomib was performed on the same system as described for analysis of cholesterol. The mobile phase consists of A=0.1% TFA, B=0.1% TFA/MeOH with a gradient elution starting at 50% B and increasing to 83% B in 13 min with 7 min equilibration back to 50% B. The flow rate is 1.0 mL/min, column temperature is 30 C, 10 μl injection and detection by absorbance at 205 nm. The retention time of carfilzomib is 12.2 min. The lipid concentration is determined by analysis of the cholesterol by HPLC.

[2] = Carfilzomib solubility as a function of DMSO content (optical density at 600 nm); format: physicochemical; details: 0.2 mg/mL carfilzomib
Procedure: Carfilzomib was added from a stock 10 mg/mL solution in DMSO to 1 mL of a citric acid/DMSO mixture so that the composition of DMSO was 2%, 25%, 50%, 75% and 100%. The final drug concentration was 0.2 mg/mL. The solutions were prepared and measured for optical density at 600 nm. The optical density at 600 nm is a good measure of how turbid or how much scattering material (such as drug precipitates) are in a solution, generally, the more precipitates the higher the absorbance. From FIG. 8 is apparent that at DMSO concentrations below 50% vol/vol (25° C.) and 25% vol/vol (65° C.) the drug remains in a precipitated form. Only when the concentration of DMSO is increased does it become effectively solubilized at this concentration of 0.2 mg/mL.

[3] = unencapsulated drug; Yang et al 2011; cited from earlier work
[4] = Remote loading of carfilzomib precipitate into liposomes (drug and lipid by HPLC after purification); format: physicochemical
[5] = 250 mM ammonium sulfate liposomes, drug added at 100 g drug/mol HSPC
[6] = 250 mM ammonium sulfate liposomes, drug added at 200 g drug/mol HSPC
[7] = input drug/HSPC 91.8 g/mol, [(NH4)2SO4] 250 mM
[8] = input drug/HSPC 167.3 g/mol, [(NH4)2SO4] 250 mM
[9] = input drug/HSPC 251.8 g/mol, [(NH4)2SO4] 250 mM
[10] = input drug/HSPC 338.1 g/mol, [(NH4)2SO4] 250 mM
[11] = input drug/HSPC 432.8 g/mol, [(NH4)2SO4] 250 mM
[12] = input drug/HSPC 450.6 g/mol, [(NH4)2SO4] 500 mM
[13] = input drug/HSPC 545.9 g/mol, [(NH4)2SO4] 500 mM
[14] = input drug/HSPC 639.2 g/mol, [(NH4)2SO4] 500 mM
[15] = input drug/HSPC 639.2 g/mol, [(NH4)2SO4] 500 mM, listed as Carfilzomib
[16] = input drug/HSPC 758.7 g/mol, [(NH4)2SO4] 500 mM
[17] = input drug/HSPC 758.7 g/mol, [(NH4)2SO4] 500 mM, listed as Carfilzomib
[18] = triethylammonium sulfate gradient, input 650 g drug/mol HSPC, at 30 min

SMILES: CC(C)C[C@H](NC(=O)[C@H](CCc1ccccc1)NC(=O)CN1CCOCC1)C(=O)N[C@@H](Cc1ccccc1)C(=O)N[C@@H](CC(C)C)C(=O)[C@@]1(C)CO1 [carfilzomib]
- efficiency of remote loading ([1]; 10 mg/mL DMSO solution added in 5 increments over 1 min while vortexing): 96.3%±1.09%
- final drug to lipid ratio [1, 5]: 95.26±3.47 g drug/mol of HSPC
- loading efficiency [1, 5]: 95.26±3.47%
- final drug load ([1]; control liposomes with 250 mM sodium sulfate (no gradient), drug added at 100 g drug/mol HSPC): 33.28±0.79 g drug/mol of HSPC
- loading capacity of remote loaded liposomes over sodium sulfate liposomes ([1]; input 100 g drug/mol HSPC): > 3 fold
- efficiency of remote loading ([1]; trapping agent ammonium sulfate, 10 mg/mL DMSO solution added quickly): 97.0%±2.38%
- DMSO concentration below which the drug remains in a precipitated form ([2]; 25 C): 50 % vol/vol
- DMSO required to completely dissolve the drug ([2]; 65 C): > 25 % vol/vol
- t1/2 in the blood stream [3]: < 20 min
- final drug to lipid ratio [4, 6]: 136.9±7.35 g drug/mol of HSPC
- loading efficiency [4, 6]: 67.94±3.67%
- loading efficiency ([4]; DMSO 1% and above (up to 10% v/v), input 200 ug/umol, ammonium sulfate liposomes): 74-94%
- loading ([4]; DMSO absent): practically no loading
- final drug load ([4]; control liposomes with 250 mM sodium sulfate (no gradient), drug added at 200 g drug/mol HSPC): 29.01±0.79 g drug/mol of HSPC
- effect of time between precipitate formation and loading on loading efficiency ([4]; delay up to 12 h): does not have a significant impact
- efficiency of remote loading ([4]; drug added as solid powder, 65 C for 30 min, 100 g drug/mol HSPC): 3.88%±0.053%
- efficiency of remote loading ([4]; drug added as solid powder, 65 C for 120 min, 100 g drug/mol HSPC): 3.47%±0.030%
- Drug payload/carrier weight ratio [4, 7]: 0.07 g drug/g total lipid
- Output drug/HSPC [4, 7]: 83.5 g/mol
- efficiency [4, 7]: 90.9%
- Drug payload/carrier weight ratio [4, 8]: 0.11 g drug/g total lipid
- Output drug/HSPC [4, 8]: 127.2 g/mol
- efficiency [4, 8]: 76.0%
- Drug payload/carrier weight ratio [4, 9]: 0.15 g drug/g total lipid
- Output drug/HSPC [4, 9]: 174.1 g/mol
- efficiency [4, 9]: 69.1%
- Drug payload/carrier weight ratio [4, 10]: 0.18 g drug/g total lipid
- Output drug/HSPC [4, 10]: 210.7 g/mol
- efficiency [4, 10]: 62.3%
- Drug payload/carrier weight ratio [4, 11]: 0.20 g drug/g total lipid
- Output drug/HSPC [4, 11]: 240.5 g/mol
- efficiency [4, 11]: 55.6%
- Drug payload/carrier weight ratio [4, 12]: 0.29 g drug/g total lipid
- Output drug/HSPC [4, 12]: 345.2 g/mol
- efficiency [4, 12]: 76.6%
- Drug payload/carrier weight ratio [4, 13]: 0.32 g drug/g total lipid
- Output drug/HSPC [4, 13]: 380.9 g/mol
- efficiency [4, 13]: 69.8%
- Drug payload/carrier weight ratio [4, 14]: 0.37 g drug/g total lipid
- Output drug/HSPC [4, 14]: 440 ± 10.2 g/mol
- efficiency [4, 14]: 68.7±4.80%
- Output drug/HSPC [4, 15]: 438.9 g/mol
- efficiency [4, 15]: 68.7%
- Drug payload/carrier weight ratio [4, 16]: 0.4 g drug/g total lipid
- Output drug/HSPC [4, 16]: 469 ± 4.9 g/mol
- efficiency [4, 16]: 61.7±1.2%
- Drug payload/carrier weight ratio [4, 17]: 0.40 g drug/g total lipid
- Output drug/HSPC [4, 17]: 468.2 g/mol
- efficiency [4, 17]: 61.7%
- efficiency of remote loading ([4]; room temperature, 3 POPC/2 Chol/0.15 PEG-DSPE liposomes, 187 g drug/mol): 100.52%±1.01%
- efficiency of remote loading ([4]; room temperature, 95 PChemsPC/5 PEG-DSPE liposomes, 100 g drug/mol PChemsPC): 95.5%±1.23%
- efficiency of remote loading ([4]; trapping agent mellitic acid, 100 g drug/mol HSPC): 37.4%±2.01%
- efficiency of remote loading ([4]; trapping agent napthelenedisulfonic acid, 100 g drug/mol HSPC): 95.1%±1.76%
- efficiency [4, 18]: 65.9±1.98%
- greatest payload achieved [4, 18]: 440±12.6 g drug/mol HSPC
